In patent US11925690B2, “Bifunctional molecules for targeting Rpn11” (AMPHISTA THERAPEUTICS LTD, priority 2018, dated 2024):

Columns and labels:
Type in all cases: cell-based
MV4-11 cells = test: CellTiter-Glo anti-proliferative assay; conditions: MV4-11, 72 h, 5 μM and below compound
Experimental: The anti-proliferative effects of representative compounds and other compounds was measured using the CellTiter-Glo assay (Promega). MV4-11 cells were incubated in a sterile, white, clear-bottomed 384-well cell-culture microplate (Greiner Bio-one), at 2× concentration in RPMI media and a volume of 25 μl. The next day, test compounds were serially diluted in RPMI media to 2× concentration, then added to cells to make a final volume of 50 μl. After a 72 h incubation 25 μl of CellTiter-Glo reagent was added to each well. Following 15 minute incubation the luminescence signal was read on a Pherastar FS. The final concentration of assay components are as follows: 3×10^5 cells/ml, 0.05% DMSO, 5 μM and below compound. Data (FIG. 8) was processed and dose-response curves generated using Prism 8 (Graphpad).

Brd4 (S) [1] = target: T1, Brd4 (S) (Homo sapiens, UniProt O60885); test: Concentration-dependent BET degradation, immunoblot; conditions: 4 h, 1 nM-10 μM
T1 construct: endogenous in cells; host or cells: HEK293 (CRL-1573), HeLa (CCL-2)
Experimental: (§1) Immunoblotting. Proteins were separated by SDS-PAGE on NuPage 4-12% Bis-Tris gels, followed by transfer to Amersham Protran 0.45 NC nitrocellulose membrane (GE Healthcare) using wet transfer. Membranes were blocked using 5% w/v milk in Tris-buffered saline (TBS) with 0.1% Tween-20. Blots were probed (overnight at 4 °C) using anti-Brd2 (Abcam ab139690, 1:2,000 dilution), anti-Brd3 (Abcam ab50818, 1:500 dilution), and anti-Brd4 (Abcam ab128874, 1:1,000 dilution) primary antibodies, as appropriate. The next day, blots were washed with TBST and incubated (1 h at Room temperature) with anti-Tubulin hFAB-rhodamine (BioRad, 12004166) primary antibody, and either anti-rabbit IRDye 800CW (Licor 1:1,000 dilution) or anti-mouse IRDye 800CW (Licor 1:1,000 dilution) secondary antibody. Blots were developed using a Bio-Rad ChemiDoc MP Imaging System, and band quantification was performed using Image Studio software (LiCor). Band intensities were normalized to the tubulin loading control and reported as % of the average 0.1% DMSO vehicle intensity. Degradation data was plotted and analysed using Prism (Graphpad, version 8).
(§2) HeLa (5×10^5) and HEK293 (1×10^6) cells were seeded in standard 6-well plates (2 mL medium) overnight before treatment with compounds at the desired concentration (1 nM-10 μM), with a final DMSO concentration of 0.1% v/v. After 4 h treatment time, cells were washed with DPBS (Gibco) and lysed using 85 μL RIPA buffer (Sigma-Aldrich) supplemented with cOmplete Mini EDTA-free protease inhibitor cocktail (Roche) and benzonase. Lysates were clarified by centrifugation (20000 g, 10 min, 4° C.) and the total protein content of the supernatant was quantified using a Bradford colorimetric assay. Samples were prepared using equal amounts of total protein and LDS sample buffer (Invitrogen). Band intensities were normalized to the tubulin loading control and reported as % of the average 0.1% DMSO vehicle intensity. Degradation data was plotted and analysed using Prism (Graphpad, version 8).
MZ1 and 11JQ17 were used at 1 μM for positive and negative controls, respectively. […] For the table, Dmax: +(Dmax≤25%); ++(26%≤Dmax≤50%); +++(51%≤Dmax≤70%); ++++(71%≤DC50: A (DC50≤50 nM); B (51 nM≤DC50≤500 nM); C (501 nM≤DC50).

Brd4 (S) [2] = target: T1, Brd4 (S); test: Time-dependent BET degradation, immunoblot; set-up: Dmax: dose or concentration left out as unconfirmed; conditions: HeLa; for Abs. T1/2 / T1/2: 1 μM; for Abs. T1/2: time to deplete 50% of the protein relative to DMSO; for T1/2: time to reach 50% of the Dmax
Experimental: as §1
as §2, with “HEK293” for “HeLa (5×10^5) and HEK293”, “(0.5×10^6)” for “(1×10^6)”, “1 μM concentration,” for “the desired concentration (1 nM-10 μM),”, “incubation for the desired time (0-24 hrs),” for “4 h treatment time,”, “complete” for “cOmplete”
(§3) MZ1 and 11JQ17 were used at 1 μM (4 h) for positive and negative controls, respectively. […] T1/2 (h) is the time required to deplete 50% of the protein relative to DMSO.

Brd4 (L) = target: T2, Brd4 (L) (Homo sapiens, UniProt O60885); test: Time-dependent BET degradation, immunoblot; set-up: Dmax: dose or concentration left out as unconfirmed; conditions: HeLa; for Abs. T1/2 / T1/2: 1 μM; for Abs. T1/2: time to deplete 50% of the protein relative to DMSO; for T1/2: time to reach 50% of the Dmax
T2 construct: endogenous in cells; host or cells: HEK293 (CRL-1573), HeLa (CCL-2)
Experimental: as §1
as §2, with “HEK293” for “HeLa (5×10^5) and HEK293”, “(0.5×10^6)” for “(1×10^6)”, “1 μM concentration,” for “the desired concentration (1 nM-10 μM),”, “incubation for the desired time (0-24 hrs),” for “4 h treatment time,”, “complete” for “cOmplete”
as §3

Brd4 = target: T3, Brd4 (Homo sapiens, UniProt O60885); test: Immunoblot analysis of Brd4 in HEK293 cells (prodrug activity, negative SAR); conditions: HEK293, 1 μM, 4 h, n=3
T3 construct: immunoblot analysis of Brd4 following 4 h treatment of HEK293 cells; endogenous in cells; host or cells: HEK293 (CRL-1573)
Experimental: as §1, with “8). […]” for “8).”
HEK293 (1×10^6) cells incubated with DMSO, 1 μM 11JQ15 or 1 μM 11JQ17 for 4 h with a final DMSO concentration of 0.1% v/v. […] Degradation data was plotted and analysed using Prism (Graphpad, version 8), where bars are mean±SEM of three independent experiments.

| Compound | cytotoxicity profile / anti-proliferative effect (FIG. 8) (MV4-11 cells) | DC50 (Brd4 (S) [1]; HEK293, Brd4 (S)) [µM] | Dmax (Brd4 (S) [1]; HEK293, Brd4 (S)) [%] | DC50 (Brd4 (S) [1]; HeLa) [µM] | Dmax (Brd4 (S) [1]; HeLa) [%] | Dmax (Brd4 (S) [2]) [%] | Abs. T1/2 (Brd4 (S) [2]) [h] | T1/2 (Brd4 (S) [2]) [h] | Dmax (Brd4 (L)) [%] | Abs. T1/2 (Brd4 (L)) [h] | T1/2 (Brd4 (L)) [h] | Brd4 levels (FIG. 3) (Brd4) |
| --- | --- | --- | --- | --- | --- | --- | --- | --- | --- | --- | --- | --- |
| Cc1sc2c(c1C)C(c1ccc(Cl)cc1)=N[C@@H](CC(=O)NCCCCNC(=O)c1cc(SC(=O)c3ccccc3)c3ncc(C(=O)NCCc4nccs4)cc3c1)c1nnc(C)n1-2 [Example 11JQ16] | distinct from JQ1 and inactive 11JQ18 | ≤ 0.05 | ≥ 71 | 0.051 to 0.5 | ≥ 71 |  |  |  |  |  |  |  |
| Cc1sc2c(c1C)C(c1ccc(Cl)cc1)=N[C@@H](CC(=O)NCCCCNC(=O)c1cc(S)c3ncc(C(=O)NCCc4nccs4)cc3c1)c1nnc(C)n1-2 [Example 11JQ7] | distinct from JQ1 and inactive 11JQ18 | 0.051 to 0.5 | ≥ 71 | ≤ 0.05 | ≥ 71 | 100 | 3.1 | 3 | 100 | 2.4 | 2.3 |  |
| Cc1sc2c(c1C)C(c1ccc(Cl)cc1)=N[C@@H](CC(=O)NCCOCCNC(=O)c1cc(SC(=O)c3ccccc3)c3ncc(C(=O)NCCc4nccs4)cc3c1)c1nnc(C)n1-2 [Example 11JQ15] |  | 0.051 to 0.5 | 51 to 70 | 0.051 to 0.5 | 51 to 70 | 90 | 3.3 | 2.8 | 90 | 4.3 | 3.5 | significant depletion of Brd4 levels |
